In patent US20250368629A1, “FLAVONOID COMPOUNDS AND METHODS AND MATERIALS FOR USING FLAVONOID COMPOUNDS TO TREAT FIBROTIC CONDITIONS” (Mayo Foundation for Medical Education and Research, priority 2022, published 2025):
pEC50: −log10 of the molar value.

How the values were obtained:
[1] = test system: senescent human adult lung fibroblasts; assay: Senescent fibroblast survival (DAPI cell counts); type: cell-based; details: 96 hours, 3 point and 6-point dose response
Experimental: (§1) For senescent fibroblast survival experiments, human adult lung fibroblasts were replicatively passaged until senescence (confirmed by RNA and senescence associated beta galactosidase staining). Cells were then plated into 96-well plates and treated with the indicated compound and incubated for 96 hours. Cells were then fixed using 4% PFA, permeabilized using 0.25% triton x-100, and nuclear stained using DAPI. Cells were then imaged using a 4× objective on a Cytation5 microscope and cell counts were quantified using automated software (Biotek Gen5). Data shown are plotted as % survival, normalized to the vehicle treated well. Mean+/−SEM, N=3 independent experiments. For the TGFβ stimulated collagen deposition experiments (square datapoints), human adult lung fibroblasts (passage 3) were plated into 96-well plates and treated with the indicated compound +2 ng/mL TGFβ to stimulated collagen expression. Cells were incubated for 96 hours, fixed using 4% PFA, permeabilized using 0.25% triton x-100, and stained using a primary antibody recognizing type I collagen and a secondary infrared conjugated antibody. Wells were then imaged at 1× using a Odyssey Lx (LI-CORE) infrared imager and collagen intensity was quantified using automated software. Data shown are plotted as % collagen intensity, normalized to the vehicle treated well. Mean+/−SEM, N=3 independent experiments.

[2] = test system: Human adult lung fibroblasts (passage 3); assay: TGFβ stimulated collagen deposition; type: cell-based; details: +2 ng/mL TGFβ, 96 hours
Experimental: as §1

[3] = test system: senescent human adult lung fibroblasts; assay: Apoptosis of senescent lung fibroblasts (cleaved caspase-3, DAPI); type: cell-based; details: replicatively senescent human adult lung fibroblasts, 96 hours, 6-point dose-response, N=3; for pEC50: read-out: Senescent fibroblast apoptosis EC50
Experimental: (§2) Human adult lung fibroblasts were replicatively passaged until senescence (confirmed by RNA and senescence associated beta galactosidase staining). In a parallel experiment, low passage proliferating fibroblasts from the same donor were compared. Cells were plated into 96-well plates and treated with the indicated compound (6-point dose-response) and incubated for 96 hours. Cells were then fixed using 4% PFA, permeabilized using 0.25% triton x-100, and nuclear stained using a primary antibody for cleaved caspase-3, secondary fluorescence conjugated antibody, and DAPI. Cells were then imaged using a 4× objective on a Cytation5 microscope and cell counts were quantified using automated software (Biotek Gen5). Data shown are the EC50 values calculated for each compounds efficacy to induce apoptosis in senescence vs. proliferating lung fibroblasts, from the calculated dose-response curves, N=3 independent experiments.

[4] = test system: low passage proliferating fibroblasts; assay: Apoptosis of low passage proliferating lung fibroblasts (cleaved caspase-3, DAPI); type: cell-based, human; details: low passage proliferating fibroblasts from the same donor, 96 hours, 6-point dose-response, N=3; for pEC50: read-out: Proliferating fibroblast apoptosis EC50
Experimental: as §2

[5] = test system: Human adult lung fibroblasts (passage 3); assay: Fibroblast activation (TGFβ, alpha-smooth muscle actin); type: cell-based; details: +2 ng/mL TGFβ, 96 hours, alpha-smooth muscle actin intensity
Experimental: Human adult lung fibroblasts (passage 3) were plated into 96-well plates and treated with the indicated compound (6-point dose-response) +2 ng/mL TGFβ to stimulated fibroblast activation. Cells were incubated for 96 hours, fixed using 4% PFA, permeabilized using 0.25% triton x-100, and stained using a primary antibody recognizing alpha-smooth muscle actin and a secondary fluorescent conjugated antibody, and DAPI. Cells were then imaged using a 4× objective on a Cytation5 microscope and alpha-smooth muscle actin intensity was quantified using automated software (Biotek Gen5). Data shown are the IC50 values for each compounds efficacy at reducing expression of alpha-smooth muscle actin, calculated from the calculated dose-response curves, N=3 independent.

DRAK1 = molecular target: T1, DRAK1 (Homo sapiens, UniProt Q9UEE5); assay: DRAK1 kinase activity assay (radiolabeled ATP, Reaction Biology); type: biochemical; details: FIG. 30
T1 construct: purchased Reaction Biology
T1 sequence (Q9UEE5 1-414): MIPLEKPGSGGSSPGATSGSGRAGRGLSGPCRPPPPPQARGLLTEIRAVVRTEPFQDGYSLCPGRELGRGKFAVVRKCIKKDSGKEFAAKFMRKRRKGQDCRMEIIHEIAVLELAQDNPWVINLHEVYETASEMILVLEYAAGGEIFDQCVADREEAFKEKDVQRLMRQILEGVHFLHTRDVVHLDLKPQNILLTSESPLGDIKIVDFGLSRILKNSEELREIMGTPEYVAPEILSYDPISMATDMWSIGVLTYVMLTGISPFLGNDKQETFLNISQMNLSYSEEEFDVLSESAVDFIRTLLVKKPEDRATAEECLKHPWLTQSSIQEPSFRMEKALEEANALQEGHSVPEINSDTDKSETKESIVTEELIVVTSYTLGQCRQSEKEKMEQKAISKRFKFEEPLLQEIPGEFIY
Experimental: DRAK1 kinase activity was also assessed. […] A DRAK1 kinase activity was performed by Reaction Biology. DRAK1 kinase activity was measured and plotted (FIG. 30).

col1a2-mTmG mice = assay: Bleomycin injury and lung fibrosis, flow sorted lung cell populations, qPCR; type: in vivo, mouse; details: daily from day 10 after bleomycin injury, lungs sorted on day 14
Experimental: Seven days prior to injury col1a2-mTmG mice were treated with tamoxifen to turn on GFP expression in collagen producing fibroblasts. F-19 was administered daily starting on day 10 after injury, lungs were isolated, and lung tissue was flow sorted for fibroblasts, epithelial cells, and leukocytes on day 14. The sorted cells were subjected to RNA isolation followed by qPCR analysis of the indicated genes in each population of cells. N=3 mice/group.

in vitro = in vitro ADME; details: rat; for Plasma bound / Plasma unbound: 4 h
Experimental: Plasma protein binding assays were also performed (Table 2). Compounds were incubated with rat plasma for 4 hours. The percent of F-4N recovered was analyzed by LC-MS. Warfarin was used as a control for a compound with high plasma protein binding. Analysis performed by Cyprotex (Framingham, MA).

wild type mice = assay: Comparative flavonoid efficacy and toxicity in aged brain and liver (real-time PCR); type: in vivo, mouse
Excerpt: Five-month-old and twenty-eight month old wild type mice were oral gavage treated with the indicated concentrations of flavonoids (F, Q, compound 19, or compound 20) or vehicle for four consecutive days and were euthanized one week later.

Row | SMILES | pEC50 [3] | pEC50 [4] | pEC50 [5] | further results
1 | CCOc1ccc(-c2oc3ccccc3c(=O)c2O)cc1OCC [2-(3,4-diethoxyphenyl)-3-hydroxy-4h-1-benzopyran-4-one] |  |  |  | senescent fibroblast survival (in words) [1]: effective toxicity against senescent cells; TGFβ stimulated collagen deposition (in words) [2]: blocked collagen deposition
2 | CCOc1ccc(-c2oc3ccc(C)cc3c(=O)c2O)cc1OC [2-(4-ethoxy-3-methoxyphenyl)-3-hydroxy-6-methylchromen-4-one] |  |  |  | senescent fibroblast survival (in words) [1]: effective toxicity against senescent cells; TGFβ stimulated collagen deposition (in words) [2]: blocked collagen deposition
3 | COc1cccc2oc(-c3ccc(OCc4ccccc4)cc3)c(O)c(=O)c12 [5-MeOH—F-20] | 6.46 | 5.26 | 6.05 | 
4 | COc1cccc2oc(-c3ccc(OCc4ccncc4)cc3)c(O)c(=O)c12 [5-MeOH—F—4N] |  |  | 5.68 | Senescent fibroblast apoptosis EC50 [3]: inactive; Proliferating fibroblast apoptosis EC50 [4]: inactive; DRAK1 kinase activity (DRAK1): inactive
5 | CCOc1ccc(-c2oc3ccc(OC)cc3c(=O)c2O)cc1 [6-MeOH—F-19] | 5.57 | 4.82 | 5.40 | 
6 | COc1ccc2oc(-c3ccc(OCc4ccccc4)cc3)c(O)c(=O)c2c1 [6-MeOH—F-20] | 6.10 | 5.29 | 5.70 | 
7 | CCOc1ccc(-c2oc3ccccc3c(=O)c2O)cc1OC [F-19(3MeOH)] |  | 4.98 | 5.19 | 
8 | CCCOc1ccc(-c2oc3ccccc3c(=O)c2O)cc1 [F-19(Me)] | 5.47 | 4.71 | 5.40 | 
9 | CCOc1ccc(-c2oc3ccccc3c(=O)c2O)cc1 [F-19] | 5.62 | 4.61 | 5.62 | senescence markers or inflammatory cytokines in leukocytes (CD45+ cells), qPCR (col1a2-mTmG mice): No changes
10 | O=c1c(O)c(-c2ccc(OCc3ccccc3)cc2)oc2ccccc12 [F-20] | 5.82 | 4.56 | 5.70 | 
11 | O=c1c(O)c(-c2ccc(OCc3ccccn3)cc2)oc2ccccc12 [F—2N] |  |  |  | Senescent fibroblast apoptosis EC50 [3]: inactive; Proliferating fibroblast apoptosis EC50 [4]: inactive; Fibroblast activation (EC50) [5]: inactive
12 | O=c1c(O)c(-c2ccc(OCc3cccnc3)cc2)oc2ccccc12 [F—3N] | 4.36 |  |  | Proliferating fibroblast apoptosis EC50 [4]: inactive; Fibroblast activation (EC50) [5]: inactive
13 | O=c1c(O)c(-c2ccc(OCC3CC3)cc2)oc2ccccc12 [F—CP] | 6.05 | 4.96 | 5.96 | 
14 | O=c1c(O)c(-c2ccc(O)c(O)c2)oc2cc(O)cc(O)c12 [Quercetin, quercetin] |  |  |  | recovery at 4 h, 5 μM (in vitro): 0.8%; Plasma bound (in vitro; 5 μM): 95%; Plasma unbound (in vitro; 5 μM): 5.0%; CD68 expression (indicator of inflammatory activation) in brain or liver (wild type mice; oral gavage four consecutive days, euthanized one week later): lack of drug-induced toxicity
15 | CC(=O)CC(c1ccccc1)c1c(O)c2ccccc2oc1=O (stereo not shown) [Warfarin] |  |  |  | recovery at 4 h, 2 μM (in vitro): 100%; Plasma bound (in vitro; 2 μM): 99%; Plasma unbound (in vitro; 2 μM): 0.971%
16 | O=c1c(O)c(-c2ccc(O)c(O)c2)oc2cc(O)ccc12 [fisetin] |  |  |  | CD68 expression (indicator of inflammatory activation) in brain or liver (wild type mice; mouse, in vivo, po): lack of drug-induced toxicity
